The values that follow come from ChEMBL document CHEMBL3612014, “Discovery of Tyk2 inhibitors via the virtual site-directed fragment-based drug design” (Bioorg Med Chem Lett, 2015).

Some results are limits rather than exact numbers.

In series [1] the target is T1, Non-receptor tyrosine-protein kinase TYK2 (Homo sapiens, UniProt P29597). As to the kind of experiment: Inhibition of Tyk2 (unknown origin) at 10 uM.
Series [2] has as its target T1, Non-receptor tyrosine-protein kinase TYK2. Nature of the series: Inhibition of Tyk2 (unknown origin) at 100 uM.
Series [3] shares this target. As to the kind of experiment: Inhibition of Tyk2 (unknown origin) at 30 uM.
For series [4] the target is unchanged. Nature of the series: Inhibition of Tyk2 (unknown origin) at 3 uM.
Series [5] shares this target. As to the kind of experiment: Inhibition of Tyk2 (unknown origin).
Series [6] has as its target Serine/threonine-protein kinase PAK 4 (Homo sapiens) (UniProt O96013). As to the kind of experiment: Inhibition of PAK4 (unknown origin) at 10 uM.
Series [7] concerns the target T2, Aurora kinase A (Homo sapiens) (UniProt O14965).
T2 sequence (whole entry): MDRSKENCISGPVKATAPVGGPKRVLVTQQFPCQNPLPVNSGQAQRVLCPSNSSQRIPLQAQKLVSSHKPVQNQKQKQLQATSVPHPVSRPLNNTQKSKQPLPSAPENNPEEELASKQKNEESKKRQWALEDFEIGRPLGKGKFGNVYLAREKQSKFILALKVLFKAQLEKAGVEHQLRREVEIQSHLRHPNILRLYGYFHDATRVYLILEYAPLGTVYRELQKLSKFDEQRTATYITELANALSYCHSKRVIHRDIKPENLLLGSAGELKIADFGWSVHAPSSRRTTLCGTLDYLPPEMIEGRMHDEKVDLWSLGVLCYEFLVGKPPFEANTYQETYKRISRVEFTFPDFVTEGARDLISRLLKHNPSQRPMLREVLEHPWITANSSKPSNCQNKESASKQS
As to the kind of experiment: Inhibition of aurora-A (unknown origin) at 10 uM.

Series [8] addresses T3, Tyrosine-protein kinase JAK3 (Homo sapiens) (UniProt P52333).
T3 sequence (whole entry): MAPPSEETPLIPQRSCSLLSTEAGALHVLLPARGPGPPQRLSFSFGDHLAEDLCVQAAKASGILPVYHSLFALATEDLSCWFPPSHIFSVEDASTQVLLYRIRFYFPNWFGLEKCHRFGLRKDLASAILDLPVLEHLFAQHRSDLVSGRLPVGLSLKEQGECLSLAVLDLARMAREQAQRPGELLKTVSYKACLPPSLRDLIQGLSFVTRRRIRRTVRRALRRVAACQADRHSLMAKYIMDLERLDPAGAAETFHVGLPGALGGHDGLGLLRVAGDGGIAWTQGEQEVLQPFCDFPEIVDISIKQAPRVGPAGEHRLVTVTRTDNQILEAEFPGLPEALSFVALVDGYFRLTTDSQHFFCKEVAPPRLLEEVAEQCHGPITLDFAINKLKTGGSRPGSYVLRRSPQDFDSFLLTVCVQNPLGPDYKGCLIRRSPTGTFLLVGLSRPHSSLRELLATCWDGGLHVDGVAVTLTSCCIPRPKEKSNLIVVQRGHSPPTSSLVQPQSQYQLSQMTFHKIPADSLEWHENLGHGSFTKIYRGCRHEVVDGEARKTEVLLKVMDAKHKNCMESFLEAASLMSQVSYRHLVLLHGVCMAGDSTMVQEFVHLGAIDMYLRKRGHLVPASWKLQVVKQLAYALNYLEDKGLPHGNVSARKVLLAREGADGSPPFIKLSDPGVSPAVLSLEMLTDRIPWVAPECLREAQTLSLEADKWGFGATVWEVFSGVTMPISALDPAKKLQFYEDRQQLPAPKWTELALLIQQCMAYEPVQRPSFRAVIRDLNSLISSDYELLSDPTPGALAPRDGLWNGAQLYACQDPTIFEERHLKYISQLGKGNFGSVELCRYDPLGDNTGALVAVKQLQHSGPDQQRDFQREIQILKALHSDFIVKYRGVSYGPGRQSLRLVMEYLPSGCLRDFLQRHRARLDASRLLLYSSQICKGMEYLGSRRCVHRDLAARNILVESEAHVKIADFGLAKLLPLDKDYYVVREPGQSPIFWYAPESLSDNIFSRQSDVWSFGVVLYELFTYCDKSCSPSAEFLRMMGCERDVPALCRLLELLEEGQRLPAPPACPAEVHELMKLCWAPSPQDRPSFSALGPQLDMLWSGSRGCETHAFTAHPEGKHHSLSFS
Nature of the series: Inhibition of JAK3 (unknown origin) at 10 uM.

In series [9] the target is Tyrosine-protein kinase JAK2 (Homo sapiens) (UniProt O60674). Nature of the series: Inhibition of JAK2 (unknown origin) at 10 uM.
Sequence of Tyrosine-protein kinase JAK2 (Homo sapiens) (O60674 whole entry): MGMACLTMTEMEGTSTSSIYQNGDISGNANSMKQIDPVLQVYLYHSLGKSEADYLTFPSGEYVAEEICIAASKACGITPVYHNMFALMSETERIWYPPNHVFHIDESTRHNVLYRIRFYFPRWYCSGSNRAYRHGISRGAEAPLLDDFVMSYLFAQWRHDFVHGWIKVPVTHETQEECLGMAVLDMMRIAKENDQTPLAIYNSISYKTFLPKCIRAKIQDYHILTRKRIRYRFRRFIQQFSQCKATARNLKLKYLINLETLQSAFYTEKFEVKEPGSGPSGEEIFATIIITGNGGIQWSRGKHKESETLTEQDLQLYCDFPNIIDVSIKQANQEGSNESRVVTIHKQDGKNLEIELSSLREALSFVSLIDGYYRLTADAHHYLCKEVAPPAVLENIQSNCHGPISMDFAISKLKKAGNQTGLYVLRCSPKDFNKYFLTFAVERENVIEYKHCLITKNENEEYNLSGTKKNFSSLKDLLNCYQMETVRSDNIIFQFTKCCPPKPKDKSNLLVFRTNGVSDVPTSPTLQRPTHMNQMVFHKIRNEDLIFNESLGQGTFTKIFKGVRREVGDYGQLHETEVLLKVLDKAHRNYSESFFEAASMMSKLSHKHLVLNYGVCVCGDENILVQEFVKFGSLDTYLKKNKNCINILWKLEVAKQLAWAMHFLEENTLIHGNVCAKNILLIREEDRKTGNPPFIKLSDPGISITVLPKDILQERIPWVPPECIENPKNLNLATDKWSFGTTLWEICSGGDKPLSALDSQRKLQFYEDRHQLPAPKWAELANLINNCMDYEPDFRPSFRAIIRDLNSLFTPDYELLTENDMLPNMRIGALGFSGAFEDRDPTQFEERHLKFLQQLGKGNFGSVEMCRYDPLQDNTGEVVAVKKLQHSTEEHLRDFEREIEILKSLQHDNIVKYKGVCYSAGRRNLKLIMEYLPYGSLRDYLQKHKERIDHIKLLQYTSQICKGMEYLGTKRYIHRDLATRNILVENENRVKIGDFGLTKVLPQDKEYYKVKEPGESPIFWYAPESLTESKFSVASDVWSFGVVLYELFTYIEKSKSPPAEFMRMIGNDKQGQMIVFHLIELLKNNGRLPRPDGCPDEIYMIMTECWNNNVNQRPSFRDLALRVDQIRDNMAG
A short description of series [10]: Tmax in Sprague-Dawley rat at 5 mg/kg, iv. The series is classed as ADME, organism-based. Conditions: in vivo.
The nature of series [11]: Cmax in Sprague-Dawley rat at 5 mg/kg, iv. The series is classed as ADME, organism-based. Conditions: in vivo. Also on record: dose 5 mg/kg, route intravenous.
The nature of series [12]: Terminal half life in Sprague-Dawley rat at 5 mg/kg, iv. Conditions: in vivo, read-out: beta t1/2 (converted). The series is classed as ADME, organism-based.
Series [13] can be described thus: AUC (0 to t) in Sprague-Dawley rat at 5 mg/kg, iv. Particulars: in vivo. Type of series: ADME, organism-based.
Series [14] in a line: AUC (0 to infinity) in Sprague-Dawley rat at 5 mg/kg, iv. The series is classed as ADME, organism-based. Also on record: dose 5 mg/kg, route intravenous, time infinity. Conditions: in vivo.
Series [15] can be described thus: Mean residence time in Sprague-Dawley rat at 5 mg/kg, iv. Particulars: in vivo. Type of series: ADME, organism-based.
The nature of series [16]: Systemic plasma clearance in Sprague-Dawley rat at 5 mg/kg, iv. Type of series: ADME, organism-based.
A short description of series [17]: Volume of distribution at steady state in Sprague-Dawley rat at 5 mg/kg, iv. Type of series: ADME, organism-based. Particulars: in vivo, read-out: Vdss.
A short description of series [18]: Tmax in Sprague-Dawley rat at 5 mg/kg, po. Type of series: ADME, organism-based. Conditions: in vivo.
Series [19] can be described thus: Cmax in Sprague-Dawley rat at 5 mg/kg, po. The series is classed as ADME, organism-based. Conditions: in vivo. The arrangement: dose 5 mg/kg, route oral.
Series [20] is described as follows: Terminal half life in Sprague-Dawley rat at 5 mg/kg, po. Particulars: in vivo, read-out: beta t1/2 (converted). The series is classed as ADME, organism-based.
Series [21] can be described thus: AUC (0 to t) in Sprague-Dawley rat at 5 mg/kg, po. Type of series: ADME, organism-based. Particulars: in vivo.
Series [22] can be described thus: AUC (0 to infinity) in Sprague-Dawley rat at 5 mg/kg, po. The series is classed as ADME, organism-based. Also on record: dose 5 mg/kg, time infinity, route oral. Particulars: in vivo.
Series [23] in a line: Mean residence time in Sprague-Dawley rat at 5 mg/kg, po. Type of series: ADME, organism-based. Conditions: in vivo.
Series [24] in a line: Oral bioavailability in Sprague-Dawley rat at 5 mg/kg. Type of series: ADME, organism-based. Conditions: in vivo.

T1 sequence (P29597 whole entry): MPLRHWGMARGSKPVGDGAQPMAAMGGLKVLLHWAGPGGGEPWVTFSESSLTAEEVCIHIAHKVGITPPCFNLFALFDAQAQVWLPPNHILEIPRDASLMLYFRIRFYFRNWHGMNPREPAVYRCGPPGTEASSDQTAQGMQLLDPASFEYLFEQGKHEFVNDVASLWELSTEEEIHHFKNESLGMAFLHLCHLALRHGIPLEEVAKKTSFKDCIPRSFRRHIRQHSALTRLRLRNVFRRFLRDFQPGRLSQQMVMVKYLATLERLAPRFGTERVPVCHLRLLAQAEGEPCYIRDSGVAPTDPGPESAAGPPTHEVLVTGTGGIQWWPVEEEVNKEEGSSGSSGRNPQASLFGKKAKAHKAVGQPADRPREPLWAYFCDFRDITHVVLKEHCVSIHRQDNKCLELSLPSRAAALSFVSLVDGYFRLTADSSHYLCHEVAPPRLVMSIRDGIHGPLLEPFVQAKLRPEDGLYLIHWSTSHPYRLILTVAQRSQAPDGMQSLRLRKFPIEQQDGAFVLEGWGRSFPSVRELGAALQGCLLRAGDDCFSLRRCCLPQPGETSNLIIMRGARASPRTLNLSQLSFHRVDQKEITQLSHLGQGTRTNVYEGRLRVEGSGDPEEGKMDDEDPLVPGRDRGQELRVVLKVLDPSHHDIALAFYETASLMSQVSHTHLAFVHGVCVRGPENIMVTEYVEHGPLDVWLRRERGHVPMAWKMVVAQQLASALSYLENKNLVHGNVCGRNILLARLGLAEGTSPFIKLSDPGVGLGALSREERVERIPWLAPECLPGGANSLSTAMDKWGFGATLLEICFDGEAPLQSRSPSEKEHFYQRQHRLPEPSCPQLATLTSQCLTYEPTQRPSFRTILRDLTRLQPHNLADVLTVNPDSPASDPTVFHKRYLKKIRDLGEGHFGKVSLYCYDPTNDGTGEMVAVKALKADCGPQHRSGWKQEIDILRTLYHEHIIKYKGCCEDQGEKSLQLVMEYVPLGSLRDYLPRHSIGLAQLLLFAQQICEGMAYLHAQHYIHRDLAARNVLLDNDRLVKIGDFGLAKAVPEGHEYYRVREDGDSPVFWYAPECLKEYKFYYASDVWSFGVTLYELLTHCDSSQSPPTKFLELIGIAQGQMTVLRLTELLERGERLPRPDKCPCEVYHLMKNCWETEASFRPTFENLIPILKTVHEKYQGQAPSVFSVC
Sequence of Serine/threonine-protein kinase PAK 4 (Homo sapiens) (O96013 whole entry, looked up): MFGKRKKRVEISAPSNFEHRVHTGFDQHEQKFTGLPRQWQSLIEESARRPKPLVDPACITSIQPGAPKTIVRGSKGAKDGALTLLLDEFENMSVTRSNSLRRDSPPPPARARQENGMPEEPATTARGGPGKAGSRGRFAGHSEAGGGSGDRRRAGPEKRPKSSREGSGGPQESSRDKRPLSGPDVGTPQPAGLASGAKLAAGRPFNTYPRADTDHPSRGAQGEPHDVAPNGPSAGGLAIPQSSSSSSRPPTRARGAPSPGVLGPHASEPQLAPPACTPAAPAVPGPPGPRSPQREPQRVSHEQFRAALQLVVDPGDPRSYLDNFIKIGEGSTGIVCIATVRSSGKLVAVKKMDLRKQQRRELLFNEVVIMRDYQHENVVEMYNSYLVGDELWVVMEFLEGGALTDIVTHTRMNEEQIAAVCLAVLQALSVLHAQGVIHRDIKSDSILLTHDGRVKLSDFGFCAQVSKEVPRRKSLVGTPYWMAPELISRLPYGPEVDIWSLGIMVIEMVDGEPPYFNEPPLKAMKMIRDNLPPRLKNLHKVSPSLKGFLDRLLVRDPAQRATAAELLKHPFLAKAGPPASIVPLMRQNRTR

For `CC(C)c1nn(-c2ccccc2)cc1-c1nc2cc(Br)cnc2[nH]1`, in series [1], the inhibition – broadly, the relative decrease from the control value, in per cent – is 38%.

In series [1], `CC(C)c1n[nH]cc1-c1nc2cc(Br)cnc2[nH]1` gave an inhibition of less than 30%.

For the molecule `CC(C)c1nn(C)cc1-c1nc2cc(Br)cnc2[nH]1`, the inhibition is 97% in series [2], 92% in [3], 60% in series [4] and 83% in series [1].

Consider `CC(C)c1nn(C)cc1-c1nc2c(N3CCN(Cc4cccnc4)CC3)c(Br)cnc2[nH]1`, for which the inhibition in series [1] was 99%; in [6], less than 50%; in series [7] it was greater than 90%; in series [8], greater than 90%; in series [9], greater than 90%. In addition, half-maximal inhibition in series [5] (IC50) required 10 nM. In addition, the figures for the Tmax in series [10] and in [18] were 4.8 min and 19.8 min, respectively. Besides, the maximum concentration (Cmax) – broadly, the peak of the concentration-time curve – was 1340 ng/mL in series [11] and 70 ng/mL in series [19]. In addition, the half-life in [12] was 49.8 min; in series [20], 105 min. Further, the exposure AUC(0-t) (in general, the area under the concentration-time curve up to a stated or last time point) in series [13] was 1420 ng·h/mL; in series [21], 80 ng·h/mL. For the same molecule, the figures for the AUC(0-inf) in series [14] and in [22] were 1430 ng·h/mL and 90 ng·h/mL, respectively. Besides, the MRT – broadly, a mean duration of stay, worked out from the concentration-time curve – came out at 47.4 min in [15] and 1.7 h in series [23]. For the same molecule, the clearance (usually the volume of plasma or blood freed of the substance per unit of time) in series [16] is 59 mL/min/kg. Also, the Vd in series [17] turned out to be 2.76 L/kg. Also, in [24], the bioavailability (commonly dose-corrected exposure relative to a reference, in per cent) worked out at 6.07%.
